Measurements from patent US4004023A, “1-(4-Butylphenyl)-1-(3,4-methylenedioxyphenyl)-2-nitroalkanes and synergistic insecticidal mixtures therewith” (Mobil Oil Corporation, priority 1975, dated 1977).

Assays:
Format in all cases: in vivo
Southern armyworm = assay: whole plant or invertebrate; conditions: Spodoptera eridania, in Phaseolus lunatus, third or fourth instar larvae, 48 to 72 hour, read-out: percent kill, Southern armyworm (SA)
Protocol: (§1) The new 1-(4-butylphenyl)-1-(3,4-methylenedioxyphenyl)-2-nitroalkanes of this invention (Examples 4-6) were evaluated in standard greenhouse insecticide tests using housefly (HF), Mexican bean beetle (MB), Southern armyworm (SA) and yellow fever mosquito (YF). The rates of application were 500 and 100 ppm of active ingredient except in the mosquito test where test rates were 10 and 1 ppm. The results as set forth in Table I below indicate the percent kill of each insect species.
(§2) Southern armyworm and Mexican bean beetle; lima bean leaves of uniform size were momentarily dipped in a water-acetone solution of the test compound and the treated leaves were then placed on moistened filter paper in 9 cm. petri dishes and allowed to air dry. When dry, five, third or fourth instar larvae were introduced and encouraged to feed on the treated foliage by means of confinement. The dishes were closed and held for observation of mortality and feeding during a 48 to 72 hour period.

Mexican bean beetle = assay: whole plant or invertebrate; conditions: Epilachna varivestis, third or fourth instar larvae, 48 to 72 hour, read-out: percent kill, Mexican bean beetle (MB)
Protocol: as §1, §2

housefly [1] = assay: whole plant or invertebrate; conditions: Musca domestica, adult houseflies, mortality at 24 hours, read-out: percent kill, housefly (HF)
Protocol: as §1
(§3) Housefly; 1 milliliter of an aqueous solution or suspension of the test compound was pipeted into a 9 cm. petri dish containing filter paper and 0.1 gram of granular sugar. Ten adult houseflies were admitted and the dish closed. Observations were made periodically for knockdown and at 24 hours for mortality.

yellow fever mosquito = assay: whole plant or invertebrate; conditions: Aedes aegypti, fourth stage larvae, 24 hour exposure, read-out: percent kill, yellow fever mosquito (YF); for mortality at 1 ppm: 1 ppm (line printed as 100 ppm; footnote: 10 and 1 ppm for YF); for mortality at 10 ppm: 10 ppm (line printed as 500 ppm; footnote: 10 and 1 ppm for YF)
Protocol: as §1
Yellow fever mosquito; fourth stage larvae were exposed to a solution of the active compound in water. The active material was initially dissolved in acetone and then added to the water. The compounds were screened at 10 ppm and at 1 ppm using approximately 10 larvae per 100 ml of treated water. Each treatment was replicated twice. Mortality was determined after 24 hour exposure.

housefly [2] = assay: insecticide synergist test of mixtures on housefly; conditions: 25 ppm (0.0025 wt. %) total of both active ingredients; numbers in parentheses are % in mixture; 1440 min
Protocol: as §3
The new 1-(4-butylphenyl)-1-(3,4-methylenedioxyphenyl)-2-nitroalkanes of this invention were evaluated as insecticide synergists in standard insecticide tests. In general the compounds of this invention were combined with the insecticide -- 1-(p-tert-butylphenyl)-1-(p-ethoxyphenyl)-2-nitrobutane (pending application Serial No. 410,935, filed October 29, 1973) designated as Example 8 above -- in varying proportions starting from, for example, 90% Example 4, 5 or 6 plus 10% Example 8 and decreasing to, for example 10% Example 4, 5 or 6, plus 90% Example 8. In all cases, the total sum of active ingredients (i.e. Examples 4, 5 or 6 plus 8) equaled 25 ppm. These mixtures were tested on housefly following the standard greenhouse test procedure, outlined above. The results as set forth below indicate the percent kill (or percent control) of the insect species: […]

Row | Structure (SMILES) | mortality at 100 ppm (Southern armyworm) [%] | mortality at 500 ppm (Southern armyworm) [%] | mortality at 100 ppm (Mexican bean beetle) [%] | mortality at 500 ppm (Mexican bean beetle) [%] | mortality at 100 ppm (housefly [1]) [%] | mortality at 500 ppm (housefly [1]) [%] | mortality at 1 ppm (yellow fever mosquito) [%] | mortality at 10 ppm (yellow fever mosquito) [%] | % CONTROL (percent kill or percent control), housefly (housefly [2]) [%]
1 | CCC(C(c1ccc(C(C)(C)C)cc1)c1ccc2c(c1)OCO2)[N+](=O)[O-] (centres unmarked) [Example 4, 1-(4-tert-Butylphenyl)-1-(3,4-methylenedioxyphenyl)-2-nitrobutane] | 100 | 100 | 100 | 100 | 20 | 100 | 40 | 100 | –
2 | CCOc1ccc(C(c2ccc(C(C)(C)C)cc2)C(CC)[N+](=O)[O-])cc1 (centres unmarked) [Example 8, 1-(p-tert-Butylphenyl)-1-(p-ethoxyphenyl)-2-nitrobutane] | – | – | – | – | – | – | – | – | 40
3 | CCC(C)c1ccc(C(c2ccc3c(c2)OCO3)C(CC)[N+](=O)[O-])cc1 (centres unmarked) [Example 6, 1-(4-sec-Butylphenyl)-1-(3,4-methylenedioxyphenyl)-2-nitrobutane] | 30 | 100 | 90 | 100 | 100 | 100 | 100 | 100 | 0
4 | CC(C(c1ccc(C(C)(C)C)cc1)c1ccc2c(c1)OCO2)[N+](=O)[O-] (centres unmarked) [Example 5, 1-(4-tert-Butylphenyl)-1-(3,4-methylenedioxyphenyl)-2-nitropropane] | 80 | 100 | 100 | 100 | 10 | 100 | 100 | 100 | –
